{"source": "patent US11484539B2", "about": "“Compounds and their uses for alleviating menopause-associated symptoms” (Estetra SPRL, priority 2018, dated 2022)", "test_system": "post-menopausal women", "assay": "Weekly frequency of moderate to severe VMS, dose-finding study", "format": "in vivo", "conditions": "for Difference with placebo, LS adjusted mean, absolute change in weekly frequency of moderate to severe VMS / Difference with placebo, LS adjusted mean, relative change in weekly frequency of moderate to severe VMS: 10 mg E4 vs placebo; for Differences with placebo (including ineffective doses 2.5 mg and 5 mg), relative change in weekly frequency of moderate to severe VMS, LS adjusted mean / Differences with placebo (including ineffective doses 2.5 mg and 5 mg), relative change in weekly frequency of moderate to severe VMS, p_value: 10.0 mg vs 0 mg; for Relative change in weekly frequency of moderate to severe VMS, LS adjusted mean: analysis with placebo grouped with 2.5 and 5 mg; for LS adjusted mean change from baseline in weekly frequency of moderate to severe VMS / LS adjusted mean relative change (%) from baseline in weekly frequency of moderate to severe VMS: 15 mg E4", "description": "To determine the Minimum Effective Dose (MED), firstly the selection criteria required that patients presented at least 7 moderate to severe VMS/day or at least 50 moderate to severe VMS/week in the week preceding randomization. Secondly, a placebo group was included in a double-blind fashion. Thirdly, the total patient number was such that statistical significance could be obtained between separate arms of the study. Fourthly, the absolute change from baseline in weekly frequency of moderate to severe VMS was taken into account. An analysis of covariance (ANCOVA) was performed based on the untransformed change in weekly frequency of moderate to severe VMS from baseline. Finally, the change in severity from baseline was evaluated. For this, the Severity Scoring System of VMS was documented by the subjects as follows: • a score of Mild (1) for a sensation of heat without sweating; • a score of Moderate (2) for a sensation of heat with sweating/the subject is able to continue activity; and • a score of Severe (3) for a sensation of heat with sweating/which causes cessation of activity.\nEnrolment was approximately 18 months. Individual subject participation was up to 27 weeks: up to 6 weeks pre-screening and washout, up to 4 weeks screening and run-in period, up to 91 days (13 weeks) of E4/placebo treatment followed by 2 weeks (14 days) of progestin therapy and a Follow up visit 1 week after completion of progestin therapy in non-hysterectomised subjects only.\nTo define the minimum effective dose (MED) of the oral dose of E4 by evaluating changes in frequency and in severity of moderate to severe vasomotor symptoms (VMS).\nThis was a prospective, multicentre, randomised, placebo-controlled, double-blinded, dose-finding study.\nEligible subjects were hysterectomised and non-hysterectomised post-menopausal women aged 40 to 65 years, inclusive, presenting at least 7 moderate to severe hot flushes/day or at least 50 moderate to severe hot flushes/week.\nThe subjects have met all of the following inclusion criteria at the randomization visit. These criteria were assessed during the screening period: • 1. Women aged 40 to 65 years, inclusive, presenting at least 7 moderate to severe hot flushes/day or at least 50 moderate to severe hot flushes/week in the week preceding randomization. • 2. Body Mass Index (BMI) between 18.0 and 35.0 kg/m^2, inclusive. • 3. Post-menopausal status defined as levels of follicle stimulating hormone (FSH) >40 IU/L and: • amenorrhoea for at least 12 consecutive months or, • amenorrhoea for at least 6 months with estradiol (E2)<20 pg/mL or, • at least 6 weeks post-surgical bilateral oophorectomy with or without hysterectomy with a copy of the pathology report or a statement on letterhead from the subject's physician documenting both ovaries were removed is required. • 4. For non-hysterectomised women: intact uterus with bi-layer endometrial thickness […] on TVUS. • 5. Negative pregnancy test. • 6. Good physical and mental health, in the judgement of the Principal Investigator (PI), on the basis of medical, surgical and gynaecological history, physical examination, gynaecological examination, clinical laboratory, and vital signs. • 7. Subject has provided signed and dated written informed consent before admission to the study. • 8. Subject is able to understand and comply with the protocol requirements, instructions, and protocol-stated restrictions. Exclusion Criteria:\nAll treatments (Estetrol, hereinafter, E4, [2.5 mg, 5 mg, 10 mg, 15 mg] capsule) were administered once daily (QD) per os for at least 12 consecutive weeks until the last biological assessments (Day 91 maximum) had been performed.\nIn order to analyse the data recorded in this study, treatment groups have been compared using an ANCOVA (analysis of covariance) with respect to the change in weekly frequency of moderate to severe VMS from baseline to weeks 4 and 12. […]", "key": {"[1]": {"conditions": "week 4, ANCOVA with study centre"}, "[2]": {"conditions": "week 12, ANCOVA with study centre"}}, "data": [{"molecule": "C[C@]12CC[C@@H]3c4ccc(O)cc4CC[C@H]3[C@@H]1[C@@H](O)[C@@H](O)[C@@H]2O", "note": "[E4, 1,3,5 (10)-estratrien-3,15alpha,16alpha,17beta-tetrol]", "values": [{"measurement": "Mean change from baseline in weekly frequency of moderate to severe VMS", "setting": "10 mg E4 QD per os, week 8", "result": "−44.46"}, {"measurement": "Relative change (% from baseline) in weekly frequency of moderate to severe VMS, mean", "setting": "10 mg E4 QD per os, week 8", "result": "−68", "unit": "%"}, {"measurement": "Mean change from baseline in weekly frequency of moderate to severe VMS", "setting": "10 mg E4 QD per os, week 9", "result": "−45.19"}, {"measurement": "Relative change (% from baseline) in weekly frequency of moderate to severe VMS, mean", "setting": "10 mg E4 QD per os, week 9", "result": "−69", "unit": "%"}, {"measurement": "Mean change from baseline in weekly frequency of moderate to severe VMS", "setting": "10 mg E4 QD per os, week 10", "result": "−45.93"}, {"measurement": "Relative change (% from baseline) in weekly frequency of moderate to severe VMS, mean", "setting": "10 mg E4 QD per os, week 10", "result": "−70", "unit": "%"}, {"measurement": "Mean change from baseline in weekly frequency of moderate to severe VMS", "setting": "10 mg E4 QD per os, week 11", "result": "−45.90"}, {"measurement": "Relative change (% from baseline) in weekly frequency of moderate to severe VMS, mean", "setting": "10 mg E4 QD per os, week 11", "result": "−70", "unit": "%"}, {"measurement": "Mean change from baseline in weekly frequency of moderate to severe VMS", "setting": "10 mg E4 QD per os, week 12", "result": "−47.21"}, {"measurement": "Relative change (% from baseline) in weekly frequency of moderate to severe VMS, mean", "setting": "10 mg E4 QD per os, week 12", "result": "−72", "unit": "%"}, {"measurement": "Difference with placebo, LS adjusted mean, absolute change in weekly frequency of moderate to severe VMS", "setting": "[1]", "result": "−1.571"}, {"measurement": "Difference with placebo, LS adjusted mean, relative change in weekly frequency of moderate to severe VMS", "setting": "[1]", "result": "−0.05376"}, {"measurement": "Difference with placebo, LS adjusted mean, absolute change in weekly frequency of moderate to severe VMS", "setting": "week 4, without site effect", "result": "−2.222"}, {"measurement": "Difference with placebo, LS adjusted mean, relative change in weekly frequency of moderate to severe VMS", "setting": "week 4, without site effect", "result": "−0.06517"}, {"measurement": "Difference with placebo, LS adjusted mean, absolute change in weekly frequency of moderate to severe VMS", "setting": "[2]", "result": "−2.103"}, {"measurement": "Difference with placebo, LS adjusted mean, relative change in weekly frequency of moderate to severe VMS", "setting": "[2]", "result": "−0.05804"}, {"measurement": "Difference with placebo, LS adjusted mean, absolute change in weekly frequency of moderate to severe VMS", "setting": "week 12, without site effect", "result": "−2.603"}, {"measurement": "Difference with placebo, LS adjusted mean, relative change in weekly frequency of moderate to severe VMS", "setting": "week 12, without site effect", "result": "−0.06624"}, {"measurement": "Differences with placebo (including ineffective doses 2.5 mg and 5 mg), relative change in weekly frequency of moderate to severe VMS, LS adjusted mean", "setting": "week 4", "result": "−0.07645"}, {"measurement": "Differences with placebo (including ineffective doses 2.5 mg and 5 mg), relative change in weekly frequency of moderate to severe VMS, p_value", "setting": "week 4", "result": 0.2615}, {"measurement": "Differences with placebo (including ineffective doses 2.5 mg and 5 mg), relative change in weekly frequency of moderate to severe VMS, LS adjusted mean", "setting": "week 12", "result": "−0.08276"}, {"measurement": "Differences with placebo (including ineffective doses 2.5 mg and 5 mg), relative change in weekly frequency of moderate to severe VMS, p_value", "setting": "week 12", "result": 0.1798}, {"measurement": "Relative change (% from baseline) in weekly frequency of moderate to severe VMS, mean", "setting": "10 mg, Week 12", "result": "−72", "unit": "%"}, {"measurement": "Relative change (% from baseline) in weekly frequency of moderate to severe VMS, mean", "setting": "10 mg, week 0", "result": 0, "unit": "%"}, {"measurement": "Relative change (% from baseline) in weekly frequency of moderate to severe VMS, mean", "setting": "10 mg, week 1", "result": "−21", "unit": "%"}, {"measurement": "Relative change (% from baseline) in weekly frequency of moderate to severe VMS, mean", "setting": "10 mg, week 2", "result": "−37", "unit": "%"}, {"measurement": "Relative change (% from baseline) in weekly frequency of moderate to severe VMS, mean", "setting": "10 mg, week 3", "result": "−48", "unit": "%"}, {"measurement": "Relative change (% from baseline) in weekly frequency of moderate to severe VMS, mean", "setting": "10 mg, week 4", "result": "−55", "unit": "%"}, {"measurement": "Relative change in weekly frequency of moderate to severe VMS, LS adjusted mean", "setting": "10 mg, week 4", "result": "−0.5442"}, {"measurement": "Relative change (% from baseline) in weekly frequency of moderate to severe VMS, mean", "setting": "10 mg, week 5", "result": "−60", "unit": "%"}, {"measurement": "Relative change (% from baseline) in weekly frequency of moderate to severe VMS, mean", "setting": "10 mg, week 6", "result": "−65", "unit": "%"}, {"measurement": "Relative change (% from baseline) in weekly frequency of moderate to severe VMS, mean", "setting": "10 mg, week 7", "result": "−66", "unit": "%"}, {"measurement": "Relative change (% from baseline) in weekly frequency of moderate to severe VMS, mean", "setting": "10 mg, week 8", "result": "−68", "unit": "%"}, {"measurement": "Relative change (% from baseline) in weekly frequency of moderate to severe VMS, mean", "setting": "10 mg, week 9", "result": "−69", "unit": "%"}, {"measurement": "Relative change (% from baseline) in weekly frequency of moderate to severe VMS, mean", "setting": "10 mg, week 10", "result": "−70", "unit": "%"}, {"measurement": "Relative change (% from baseline) in weekly frequency of moderate to severe VMS, mean", "setting": "10 mg, week 11", "result": "−70", "unit": "%"}, {"measurement": "Relative change in weekly frequency of moderate to severe VMS, LS adjusted mean", "setting": "10 mg, week 12", "result": "−0.7008"}, {"measurement": "LS adjusted mean change from baseline in weekly frequency of moderate to severe VMS", "setting": "[1]", "result": "−43.6"}, {"measurement": "LS adjusted mean relative change (%) from baseline in weekly frequency of moderate to severe VMS", "setting": "[1]", "result": -64.7, "unit": "%"}, {"measurement": "LS adjusted mean change from baseline in weekly frequency of moderate to severe VMS", "setting": "week 4, without site effect", "result": "−44.36"}, {"measurement": "LS adjusted mean relative change (%) from baseline in weekly frequency of moderate to severe VMS", "setting": "week 4, without site effect", "result": -66, "unit": "%"}, {"measurement": "LS adjusted mean change from baseline in weekly frequency of moderate to severe VMS", "setting": "[2]", "result": "−53.83"}, {"measurement": "LS adjusted mean relative change (%) from baseline in weekly frequency of moderate to severe VMS", "setting": "[2]", "result": -80.1, "unit": "%"}, {"measurement": "LS adjusted mean change from baseline in weekly frequency of moderate to severe VMS", "setting": "week 12, without site effect", "result": "−54.91"}, {"measurement": "LS adjusted mean relative change (%) from baseline in weekly frequency of moderate to severe VMS", "setting": "week 12, without site effect", "result": -82.3, "unit": "%"}, {"measurement": "Mean change from baseline in weekly frequency of moderate to severe VMS", "setting": "15 mg E4 QD per os, week 1", "result": "−14.86"}, {"measurement": "Relative change (% from baseline) in weekly frequency of moderate to severe VMS, mean", "setting": "15 mg E4 QD per os, week 1", "result": "−22", "unit": "%"}, {"measurement": "Mean change from baseline in weekly frequency of moderate to severe VMS", "setting": "15 mg E4 QD per os, week 2", "result": "−29.19"}, {"measurement": "Relative change (% from baseline) in weekly frequency of moderate to severe VMS, mean", "setting": "15 mg E4 QD per os, week 2", "result": "−46", "unit": "%"}, {"measurement": "Mean change from baseline in weekly frequency of moderate to severe VMS", "setting": "15 mg E4 QD per os, week 3", "result": "−36.30"}, {"measurement": "Relative change (% from baseline) in weekly frequency of moderate to severe VMS, mean", "setting": "15 mg E4 QD per os, week 3", "result": "−57", "unit": "%"}]}]}
